Source: PubChem BioAssay (NCI)
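Grown in 96-well plates, cells were treated for 48 hours with each compound at five concentrations. Insufficient inhibition: endpoint recorded as highest concentration tested. GI50: concentration for 50% inhibition of growth. The concentration for full growth arrest is given as TGI.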

How the values were obtained:
Assay in all cases: growth of human tumour cells (NCI), 48 h
EKVX NSCLC = test system: EKVX NSCLC
CCRF-CEM leukemia = test system: CCRF-CEM leukemia
K-562 leukemia = test system: K-562 leukemia
NCI-H460 lung = test system: NCI-H460 lung
HL-60(TB) leukemia = test system: HL-60(TB) leukemia
T-47D breast = test system: T-47D breast
RXF 393 renal = test system: RXF 393 renal
SK-MEL-2 melanoma = test system: SK-MEL-2 melanoma
UACC-257 melanoma = test system: UACC-257 melanoma
LOX IMVI melanoma = test system: LOX IMVI melanoma
MALME-3M melanoma = test system: MALME-3M melanoma
HS 578T breast = test system: HS 578T breast
A549 NSCLC = test system: A549 NSCLC
786-0 renal = test system: 786-0 renal
UO-31 renal = test system: UO-31 renal
MCF7 breast = test system: MCF7 breast
SNB-75 CNS = test system: SNB-75 CNS
BT-549 breast = test system: BT-549 breast
A498 renal = test system: A498 renal
NCI-H522 lung = test system: NCI-H522 lung
DU-145 prostate = test system: DU-145 prostate
PC-3 prostate = test system: PC-3 prostate
HCT-15 colon = test system: HCT-15 colon
SK-MEL-28 melanoma = test system: SK-MEL-28 melanoma
MOLT-4 leukemia = test system: MOLT-4 leukemia
HT29 colon = test system: HT29 colon
SK-MEL-5 melanoma = test system: SK-MEL-5 melanoma
OVCAR-5 ovarian = test system: OVCAR-5 ovarian
NCI-H226 lung = test system: NCI-H226 lung
SR leukemia = test system: SR leukemia
IGROV1 ovarian = test system: IGROV1 ovarian
UACC-62 melanoma = test system: UACC-62 melanoma
OVCAR-3 ovarian = test system: OVCAR-3 ovarian
HCC-2998 colon = test system: HCC-2998 colon
HCT-116 colon = test system: HCT-116 colon
SK-OV-3 ovarian = test system: SK-OV-3 ovarian
SN12C renal = test system: SN12C renal
SF-539 CNS = test system: SF-539 CNS
KM12 colon = test system: KM12 colon
U251 CNS = test system: U251 CNS
ACHN renal = test system: ACHN renal
SNB-19 CNS = test system: SNB-19 CNS
MDA-MB-231 breast = test system: MDA-MB-231 breast
SF-295 CNS = test system: SF-295 CNS
OVCAR-4 ovarian = test system: OVCAR-4 ovarian
TK-10 renal = test system: TK-10 renal
OVCAR-8 ovarian = test system: OVCAR-8 ovarian
SW-620 colon = test system: SW-620 colon
NCI-H23 lung = test system: NCI-H23 lung
M14 melanoma = test system: M14 melanoma
RPMI-8226 leukemia = test system: RPMI-8226 leukemia
COLO 205 colon = test system: COLO 205 colon
HOP-92 NSCLC = test system: HOP-92 NSCLC
MDA-MB-435 = test system: MDA-MB-435
NCI/ADR-RES ovarian = test system: NCI/ADR-RES ovarian
SF-268 CNS = test system: SF-268 CNS
CAKI-1 renal = test system: CAKI-1 renal

Q: Which results are given for `COc1cc(C(=O)N2CCN(c3ccccn3)CC2)c(N)cc1OCc1ccccc1`?
A: GI50 (EKVX NSCLC): > 100 µM; TGI (EKVX NSCLC): > 100 µM; GI50 (CCRF-CEM leukemia): 21 µM; TGI (CCRF-CEM leukemia): 39.5 µM; GI50 (K-562 leukemia): 20 µM; TGI (K-562 leukemia): 74.1 µM; GI50 (NCI-H460 lung): > 100 µM; TGI (NCI-H460 lung): > 100 µM; GI50 (HL-60(TB) leukemia): 82.4 µM; TGI (HL-60(TB) leukemia): > 100 µM; GI50 (T-47D breast): 45.2 µM; TGI (T-47D breast): > 100 µM; GI50 (RXF 393 renal): > 100 µM; TGI (RXF 393 renal): > 100 µM; GI50 (SK-MEL-2 melanoma): > 100 µM; TGI (SK-MEL-2 melanoma): > 100 µM; GI50 (UACC-257 melanoma): > 100 µM; TGI (UACC-257 melanoma): > 100 µM; GI50 (LOX IMVI melanoma): > 100 µM; TGI (LOX IMVI melanoma): > 100 µM; GI50 (MALME-3M melanoma): > 100 µM; TGI (MALME-3M melanoma): > 100 µM; GI50 (HS 578T breast): > 100 µM; TGI (HS 578T breast): > 100 µM; GI50 (A549 NSCLC): > 100 µM; TGI (A549 NSCLC): > 100 µM; GI50 (786-0 renal): > 100 µM; TGI (786-0 renal): > 100 µM; GI50 (UO-31 renal): 68.3 µM; TGI (UO-31 renal): > 100 µM; GI50 (MCF7 breast): 58.5 µM; TGI (MCF7 breast): > 100 µM; GI50 (SNB-75 CNS): 39.9 µM; TGI (SNB-75 CNS): > 100 µM; GI50 (BT-549 breast): 66.4 µM; TGI (BT-549 breast): > 100 µM; GI50 (A498 renal): 91.2 µM; TGI (A498 renal): > 100 µM; GI50 (NCI-H522 lung): > 100 µM; TGI (NCI-H522 lung): > 100 µM; GI50 (DU-145 prostate): > 100 µM; TGI (DU-145 prostate): > 100 µM; GI50 (PC-3 prostate): > 100 µM; TGI (PC-3 prostate): > 100 µM; GI50 (HCT-15 colon): > 100 µM; TGI (HCT-15 colon): > 100 µM; GI50 (SK-MEL-28 melanoma): > 100 µM; TGI (SK-MEL-28 melanoma): > 100 µM; GI50 (MOLT-4 leukemia): 34.1 µM; TGI (MOLT-4 leukemia): > 100 µM; GI50 (HT29 colon): 78.2 µM; TGI (HT29 colon): > 100 µM; GI50 (SK-MEL-5 melanoma): 30.1 µM; TGI (SK-MEL-5 melanoma): > 100 µM; GI50 (OVCAR-5 ovarian): > 100 µM; TGI (OVCAR-5 ovarian): > 100 µM; GI50 (NCI-H226 lung): > 100 µM; TGI (NCI-H226 lung): > 100 µM; GI50 (SR leukemia): 77.7 µM; TGI (SR leukemia): > 100 µM; GI50 (IGROV1 ovarian): > 100 µM; TGI (IGROV1 ovarian): > 100 µM; GI50 (UACC-62 melanoma): 81 µM; TGI (UACC-62 melanoma): > 100 µM; GI50 (OVCAR-3 ovarian): 55.8 µM; TGI (OVCAR-3 ovarian): > 100 µM; GI50 (HCC-2998 colon): > 100 µM; TGI (HCC-2998 colon): > 100 µM; GI50 (HCT-116 colon): > 100 µM; TGI (HCT-116 colon): > 100 µM; GI50 (SK-OV-3 ovarian): > 100 µM; TGI (SK-OV-3 ovarian): > 100 µM; GI50 (SN12C renal): 46.8 µM; TGI (SN12C renal): > 100 µM; GI50 (SF-539 CNS): > 100 µM; TGI (SF-539 CNS): > 100 µM; GI50 (KM12 colon): > 100 µM; TGI (KM12 colon): > 100 µM; GI50 (U251 CNS): > 100 µM; TGI (U251 CNS): > 100 µM; GI50 (ACHN renal): > 100 µM; TGI (ACHN renal): > 100 µM; GI50 (SNB-19 CNS): > 100 µM; TGI (SNB-19 CNS): > 100 µM; GI50 (MDA-MB-231 breast): > 100 µM; TGI (MDA-MB-231 breast): > 100 µM; GI50 (SF-295 CNS): > 100 µM; TGI (SF-295 CNS): > 100 µM; GI50 (OVCAR-4 ovarian): 69.9 µM; TGI (OVCAR-4 ovarian): > 100 µM; GI50 (TK-10 renal): > 100 µM; TGI (TK-10 renal): > 100 µM; GI50 (OVCAR-8 ovarian): > 100 µM; TGI (OVCAR-8 ovarian): > 100 µM; GI50 (SW-620 colon): > 100 µM; TGI (SW-620 colon): > 100 µM; GI50 (NCI-H23 lung): > 100 µM; TGI (NCI-H23 lung): > 100 µM; GI50 (M14 melanoma): > 100 µM; TGI (M14 melanoma): > 100 µM; GI50 (RPMI-8226 leukemia): 56.4 µM; TGI (RPMI-8226 leukemia): > 100 µM; GI50 (COLO 205 colon): 96.8 µM; TGI (COLO 205 colon): > 100 µM; GI50 (HOP-92 NSCLC): > 100 µM; TGI (HOP-92 NSCLC): > 100 µM; GI50 (MDA-MB-435): > 100 µM; TGI (MDA-MB-435): > 100 µM; GI50 (NCI/ADR-RES ovarian): 74.6 µM; TGI (NCI/ADR-RES ovarian): > 100 µM; GI50 (SF-268 CNS): > 100 µM; TGI (SF-268 CNS): > 100 µM; GI50 (CAKI-1 renal): > 100 µM; TGI (CAKI-1 renal): > 100 µM
